# From ChEMBL document CHEMBL1201862, “PubChem BioAssay data set” (2004)
#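 Test compounds were applied to cells in 96-well plates for 48 hours at 5 doses. GI50 = concentration required for 50% inhibition of growth.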 Active and inactive are the calls of the source. No stated cut-off is given here; in the data, active = GI50 up to about 1.1 µM and inactive = higher.
# Tests used:
# Assay in all cases: growth of human tumour cells (NCI), 48 h
# SK-MEL-28 = test system: SK-MEL-28
# UACC-257 = test system: UACC-257
# OVCAR-4 = test system: OVCAR-4
# HCT-15 = test system: HCT-15
# U-251 = test system: U-251
# SK-MEL-2 = test system: SK-MEL-2
# A549 = test system: A549
# SNB-75 = test system: SNB-75
# Hs-578T = test system: Hs-578T
# COLO 205 = test system: COLO 205
# ACHN = test system: ACHN
# SF-539 = test system: SF-539
# CAKI-1 = test system: CAKI-1
# NCI-H522 = test system: NCI-H522
# KM12 = test system: KM12
# NCI-H23 = test system: NCI-H23
# PC-3 = test system: PC-3
# SF-268 = test system: SF-268
# MDA-MB-435 = test system: MDA-MB-435
# TK-10 = test system: TK-10
# MDA-MB-231 = test system: MDA-MB-231
# K562 = test system: K562
# SN12C = test system: SN12C
# OVCAR-3 = test system: OVCAR-3
# Malme-3M = test system: Malme-3M
# UACC-62 = test system: UACC-62
# RPMI-8226 = test system: RPMI-8226
# OVCAR-5 = test system: OVCAR-5
# MDA-N = test system: MDA-N
# DU-145 = test system: DU-145
# LOX IMVI = test system: LOX IMVI
# UO-31 = test system: UO-31
# NCI/ADR-RES = test system: NCI/ADR-RES
# BT-549 = test system: BT-549
# A498 = test system: A498
# HOP-62 = test system: HOP-62
# CCRF-CEM = test system: CCRF-CEM
# SF-295 = test system: SF-295
# NCI-H460 = test system: NCI-H460
# SNB-19 = test system: SNB-19
# SR = test system: SR
# HL-60 = test system: HL-60
# MOLT-4 = test system: MOLT-4
# SK-MEL-5 = test system: SK-MEL-5
# IGROV-1 = test system: IGROV-1
# HCT-116 = test system: HCT-116
# NCI-H226 = test system: NCI-H226
# RXF 393 = test system: RXF 393
# MCF7 = test system: MCF7
# T47D = test system: T47D
# M14 = test system: M14
# HOP-92 = test system: HOP-92
# HT-29 = test system: HT-29
# OVCAR-8 = test system: OVCAR-8
# HCC 2998 = test system: HCC 2998
# 786-0 = test system: 786-0
# SW-620 = test system: SW-620
# SK-OV-3 = test system: SK-OV-3
# EKVX = test system: EKVX
compound,measurement,setting,value
N#Cc1cc2c(n(C3OC(CO)C(O)C(O)C3O)c1=S)CCC2 (centres undefined),GI50,SK-MEL-28,> 100 µM (inactive)
same,GI50,UACC-257,> 100 µM (inactive)
same,GI50,OVCAR-4,> 100 µM (inactive)
same,GI50,HCT-15,> 100 µM
same,GI50,U-251,> 100 µM (inactive)
same,GI50,SK-MEL-2,> 100 µM (inactive)
same,GI50,A549,> 100 µM (inactive)
same,GI50,SNB-75,97.3 µM (inactive)
same,GI50,Hs-578T,> 100 µM (inactive)
same,GI50,COLO 205,> 100 µM (inactive)
same,GI50,ACHN,> 100 µM (inactive)
same,GI50,SF-539,> 100 µM (inactive)
same,GI50,CAKI-1,> 100 µM (inactive)
same,GI50,NCI-H522,> 100 µM (inactive)
same,GI50,KM12,> 100 µM (inactive)
same,GI50,NCI-H23,> 100 µM (inactive)
same,GI50,PC-3,> 100 µM (inactive)
same,GI50,SF-268,> 100 µM (inactive)
same,GI50,MDA-MB-435,> 100 µM (inactive)
same,GI50,TK-10,> 100 µM (inactive)
same,GI50,MDA-MB-231,> 100 µM (inactive)
same,GI50,K562,> 100 µM (inactive)
same,GI50,SN12C,> 100 µM (inactive)
same,GI50,OVCAR-3,> 100 µM (inactive)
same,GI50,Malme-3M,> 100 µM (inactive)
same,GI50,UACC-62,> 100 µM (inactive)
same,GI50,RPMI-8226,> 100 µM (inactive)
same,GI50,OVCAR-5,> 100 µM (inactive)
same,GI50,MDA-N,> 100 µM (inactive)
same,GI50,DU-145,> 100 µM (inactive)
same,GI50,LOX IMVI,> 100 µM (inactive)
same,GI50,UO-31,> 100 µM (inactive)
same,GI50,NCI/ADR-RES,> 100 µM (inactive)
same,GI50,BT-549,> 100 µM (inactive)
same,GI50,A498,> 100 µM (inactive)
same,GI50,HOP-62,> 100 µM (inactive)
same,GI50,CCRF-CEM,> 100 µM (inactive)
same,GI50,SF-295,> 100 µM (inactive)
same,GI50,NCI-H460,> 100 µM (inactive)
same,GI50,SNB-19,> 100 µM (inactive)
same,GI50,SR,> 100 µM (inactive)
same,GI50,HL-60,> 100 µM (inactive)
same,GI50,MOLT-4,> 100 µM (inactive)
same,GI50,SK-MEL-5,> 100 µM (inactive)
same,GI50,IGROV-1,> 100 µM (inactive)
same,GI50,HCT-116,> 100 µM (inactive)
same,GI50,NCI-H226,> 100 µM (inactive)
same,GI50,RXF 393,> 100 µM (inactive)
same,GI50,MCF7,> 100 µM (inactive)
same,GI50,T47D,> 100 µM (inactive)
same,GI50,M14,> 100 µM (inactive)
same,GI50,HOP-92,> 100 µM (inactive)
same,GI50,HT-29,> 100 µM (inactive)
same,GI50,OVCAR-8,> 100 µM (inactive)
same,GI50,HCC 2998,> 100 µM (inactive)
same,GI50,786-0,> 100 µM (inactive)
COC(=O)C1(C)CCCC2(C)C3CCC4CC3(C=C4CO)CCC12 (centres undefined),GI50,SK-MEL-28,66.7 µM (inactive)
same,GI50,UACC-257,41.9 µM (inactive)
same,GI50,OVCAR-4,68.2 µM (inactive)
same,GI50,HCT-15,17.4 µM
same,GI50,SW-620,69.2 µM (inactive)
same,GI50,U-251,57.4 µM (inactive)
same,GI50,SK-MEL-2,82.4 µM (inactive)
same,GI50,A549,> 100 µM (inactive)
same,GI50,SNB-75,37.2 µM (inactive)
same,GI50,Hs-578T,> 100 µM (inactive)
same,GI50,COLO 205,74.8 µM (inactive)
same,GI50,ACHN,41 µM (inactive)
same,GI50,SF-539,32.1 µM (inactive)
same,GI50,SK-OV-3,> 100 µM (inactive)
same,GI50,CAKI-1,43.8 µM (inactive)
same,GI50,NCI-H522,34.2 µM (inactive)
same,GI50,NCI-H23,38.1 µM (inactive)
same,GI50,PC-3,33.1 µM (inactive)
same,GI50,SF-268,37.8 µM (inactive)
same,GI50,MDA-MB-435,83.2 µM (inactive)
same,GI50,TK-10,91.6 µM (inactive)
same,GI50,MDA-MB-231,73.5 µM (inactive)
same,GI50,SN12C,20.3 µM (inactive)
same,GI50,OVCAR-3,42.1 µM (inactive)
same,GI50,Malme-3M,27 µM (inactive)
same,GI50,UACC-62,> 100 µM (inactive)
same,GI50,RPMI-8226,24.9 µM (inactive)
same,GI50,OVCAR-5,> 100 µM (inactive)
same,GI50,EKVX,41.2 µM (inactive)
same,GI50,MDA-N,46.7 µM (inactive)
same,GI50,DU-145,> 100 µM (inactive)
same,GI50,LOX IMVI,20.7 µM (inactive)
same,GI50,UO-31,32.9 µM (inactive)
same,GI50,NCI/ADR-RES,24.4 µM (inactive)
same,GI50,BT-549,49.3 µM (inactive)
same,GI50,A498,87.9 µM (inactive)
same,GI50,HOP-62,75 µM (inactive)
same,GI50,CCRF-CEM,41.7 µM (inactive)
same,GI50,SF-295,60.4 µM (inactive)
same,GI50,SNB-19,28.2 µM (inactive)
same,GI50,SR,27.6 µM (inactive)
same,GI50,HL-60,20.6 µM (inactive)
same,GI50,MOLT-4,27.8 µM (inactive)
same,GI50,SK-MEL-5,37.2 µM (inactive)
same,GI50,IGROV-1,> 100 µM (inactive)
same,GI50,HCT-116,30.6 µM (inactive)
same,GI50,NCI-H226,53.2 µM (inactive)
same,GI50,RXF 393,56.4 µM (inactive)
same,GI50,MCF7,22.8 µM (inactive)
same,GI50,T47D,34.4 µM (inactive)
same,GI50,M14,93.8 µM (inactive)
same,GI50,HOP-92,55.1 µM (inactive)
same,GI50,HT-29,16.2 µM (inactive)
same,GI50,OVCAR-8,36.9 µM (inactive)
same,GI50,HCC 2998,39.6 µM (inactive)
same,GI50,786-0,43.4 µM (inactive)
CCN(CC)C(=S)SC1C(=O)NC(=O)NC1=O,GI50,SK-MEL-28,> 100 µM (inactive)
same,GI50,UACC-257,> 100 µM (inactive)
same,GI50,OVCAR-4,> 100 µM (inactive)
same,GI50,HCT-15,> 100 µM
same,GI50,SW-620,> 100 µM (inactive)
same,GI50,U-251,> 100 µM (inactive)
same,GI50,SK-MEL-2,> 100 µM (inactive)
same,GI50,A549,> 100 µM (inactive)
same,GI50,SNB-75,> 100 µM (inactive)
same,GI50,Hs-578T,> 100 µM (inactive)
same,GI50,COLO 205,> 100 µM (inactive)
same,GI50,ACHN,> 100 µM (inactive)
same,GI50,SF-539,> 100 µM (inactive)
same,GI50,SK-OV-3,> 100 µM (inactive)
same,GI50,CAKI-1,> 100 µM (inactive)
same,GI50,NCI-H522,> 100 µM (inactive)
same,GI50,KM12,> 100 µM (inactive)
same,GI50,NCI-H23,> 100 µM (inactive)
same,GI50,PC-3,> 100 µM (inactive)
same,GI50,SF-268,> 100 µM (inactive)
same,GI50,MDA-MB-435,> 100 µM (inactive)
same,GI50,TK-10,> 100 µM (inactive)
same,GI50,MDA-MB-231,> 100 µM (inactive)
same,GI50,K562,> 100 µM (inactive)
same,GI50,SN12C,> 100 µM (inactive)
same,GI50,OVCAR-3,> 100 µM (inactive)
same,GI50,Malme-3M,> 100 µM (inactive)
same,GI50,UACC-62,> 100 µM (inactive)
same,GI50,RPMI-8226,> 100 µM (inactive)
same,GI50,OVCAR-5,> 100 µM (inactive)
same,GI50,EKVX,> 100 µM (inactive)
same,GI50,MDA-N,> 100 µM (inactive)
same,GI50,DU-145,> 100 µM (inactive)
same,GI50,LOX IMVI,> 100 µM (inactive)
same,GI50,UO-31,> 100 µM (inactive)
same,GI50,NCI/ADR-RES,0.6 µM (active)
same,GI50,BT-549,> 100 µM (inactive)
same,GI50,A498,0.0106 µM (active)
same,GI50,HOP-62,> 100 µM (inactive)
same,GI50,CCRF-CEM,> 100 µM (inactive)
same,GI50,SF-295,> 100 µM (inactive)
same,GI50,NCI-H460,0.017 µM (active)
same,GI50,SR,> 100 µM (inactive)
same,GI50,HL-60,> 100 µM (inactive)
same,GI50,MOLT-4,> 100 µM (inactive)
same,GI50,SK-MEL-5,> 100 µM (inactive)
same,GI50,IGROV-1,> 100 µM (inactive)
same,GI50,HCT-116,> 100 µM (inactive)
same,GI50,NCI-H226,> 100 µM (inactive)
same,GI50,RXF 393,> 100 µM (inactive)
same,GI50,MCF7,> 100 µM (inactive)
same,GI50,T47D,> 100 µM (inactive)
same,GI50,HOP-92,> 100 µM (inactive)
same,GI50,HT-29,> 100 µM (inactive)
same,GI50,OVCAR-8,> 100 µM (inactive)
same,GI50,HCC 2998,> 100 µM (inactive)
same,GI50,786-0,> 100 µM (inactive)
